Experimental data published in paper PMC2689075 (Current biology : CB, 2009).

Target: T1, atypical protein kinase C (aPKC) (Drosophila melanogaster, UniProt A1Z9X0)
T1 sequence (A1Z9X0 1-606): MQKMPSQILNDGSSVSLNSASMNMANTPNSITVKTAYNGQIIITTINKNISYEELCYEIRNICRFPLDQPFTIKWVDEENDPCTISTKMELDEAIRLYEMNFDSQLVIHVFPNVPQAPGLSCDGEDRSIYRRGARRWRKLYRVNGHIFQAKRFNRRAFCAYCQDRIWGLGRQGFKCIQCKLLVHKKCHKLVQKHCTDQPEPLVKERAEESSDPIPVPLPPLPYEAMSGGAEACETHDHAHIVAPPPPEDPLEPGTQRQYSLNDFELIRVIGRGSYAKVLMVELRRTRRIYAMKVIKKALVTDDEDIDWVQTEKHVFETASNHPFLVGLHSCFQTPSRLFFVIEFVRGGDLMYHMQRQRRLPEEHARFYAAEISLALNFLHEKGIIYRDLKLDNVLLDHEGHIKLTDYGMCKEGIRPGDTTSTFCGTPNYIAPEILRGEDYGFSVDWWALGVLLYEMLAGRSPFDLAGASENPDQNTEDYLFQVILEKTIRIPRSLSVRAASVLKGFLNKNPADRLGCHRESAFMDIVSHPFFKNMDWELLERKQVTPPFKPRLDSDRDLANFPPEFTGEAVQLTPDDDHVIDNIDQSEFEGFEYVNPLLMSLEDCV
Experiment: in vitro […] kinase assay with purified recombinant aPKC
Format: biochemical

IC50: < 10 µM
Structure (SMILES): C[C@@H](N)[C@H]1CC[C@H](C(=O)Nc2ccncc2)CC1 [Y-27632]
